Measurements: patent US9603845B2, “Prophylactic agent and/or therapeutic agent for stress urinary incontinence” (priority 2012, dated 2017)
Marks after values point to notes of the source that are not given here.

Tests used:
[1] = system: female SD rats; test: Leak point pressure (LPP) of a rat: intravesical pressure when urinary leakage occurs; format: in vivo; conditions: 3 mg/kg intravenous, 5 minutes after administration; for Leak point pressure (LPP): urethane-anesthetized, spinal cord-transected female SD rats, average ± standard error, physiological saline 24.6±0.6
[2] = system: stress urinary incontinence model rats; conditions: rat, in vivo

Row | Compound | LPP compared with the physiological saline group (in words) [1] | Leak point pressure (LPP) [1] [cmH2O] | Frequency of urinary incontinence, 30 minutes after administration [2] | Frequency of urinary incontinence, 2 hours after administration [2] | Number of rats that express urinary incontinence due to the electrical stimulus (in words) [2] | Frequency of urinary incontinence, before administration ([2]; po)
1 | CCCOC(C(=O)OC1CCN(C)CC1)(c1ccccc1)c1ccccc1 [propiverine, α,α-diphenyl-α-n-propoxy acetic acid 1-methyl-4-piperidyl ester, reference compound] | no significant difference | 24.9±1.9 |  |  |  | 
2 | CCCOC(C(=O)OC1CCNCC1)(c1ccccc1)c1ccccc1 [the compound of the present invention, 4-piperidyl diphenylpropoxyacetate] | significantly higher | 31.1±2.3 | 4 | 3* | significantly decreased | 8
